This test addresses T1, human DGAT2 (Homo sapiens, UniProt Q96PD7).
T1 construct: FLAG (DYKDDDDK); made in house; host or cells: Sf-21 insect cells (BacPAK baculovirus system); membrane fraction used
T1 sequence (Q96PD7 1-388): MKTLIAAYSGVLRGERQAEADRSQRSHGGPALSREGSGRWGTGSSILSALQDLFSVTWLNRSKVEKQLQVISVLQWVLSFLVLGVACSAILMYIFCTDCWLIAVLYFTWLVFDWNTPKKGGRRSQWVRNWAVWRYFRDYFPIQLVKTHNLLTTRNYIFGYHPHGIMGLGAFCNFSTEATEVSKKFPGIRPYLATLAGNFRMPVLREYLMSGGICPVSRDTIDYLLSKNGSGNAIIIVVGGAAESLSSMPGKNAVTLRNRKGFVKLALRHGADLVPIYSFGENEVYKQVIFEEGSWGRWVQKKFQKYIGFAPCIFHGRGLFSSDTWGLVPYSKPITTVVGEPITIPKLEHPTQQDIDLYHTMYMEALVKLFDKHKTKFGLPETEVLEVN
In words: DGAT2 enzyme activity inhibition, Phospholipid FlashPlate SPA. The test is classed as biochemical. The conditions noted are these: recombinant human DGAT2 membrane protein from Sf-21 cells; inhibition of [14C]-TG production; 37° C. The gist of the method: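 Sf-21 membranes expressing recombinant human DGAT2 (2 μg) preincubated with compound (3 nM–10 μM, 1% DMSO) and 50 μM 1,2 sn-oleoyl glycerol, 20 min at 37 °C, then 1 μM [14C]oleoyl-CoA for 15 min. [14C]-TG counted by SPA; inhibition as % of untreated.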

The results in this text go back to US12630528B2, “Amino aryl derivative useful as diacylglycerol acyltransferase 2 inhibitor and use thereof” (LG CHEM, LTD., priority 2019, dated 2026).

The term IC50 denotes the midpoint of a concentration-inhibition curve.

Consider `CCOc1ccccc1O[C@@H]1CCCN(c2cncc(Nc3nccc(Oc4ccc(CC(=O)O)cc4)n3)n2)C1` [Example 162, (R)-2-(4-((2-((6-(3-(2-ethoxyphenoxy)piperidin-1-yl)pyrazin-2-yl)amino)pyrimidin-4-yl)oxy)phenyl)acetic Acid], for which the half-maximal inhibitory concentration (IC50) was determined as 230 nM.
Take `CCOc1cccnc1O[C@@H]1CCCN(c2cncc(Nc3nccc(Oc4ccc(CC(=O)O)cc4)n3)n2)C1` [Example 163]: the IC50 was found to be 860 nM.
With `CCOc1ccccc1O[C@@H]1CCCN(c2cncc(Nc3ncc(F)c(-c4cccc(CC(C)(C)C(=O)O)c4)n3)n2)C1` [Example 164, (R)-3-(3-(2-((6-(3-(2-ethoxyphenoxy)piperidin-1-yl)pyrazin-2-yl)amino)-5-fluoropyrimidin-4-yl)phenyl)-2,2-dimethylpropanoic Acid] the figure was 320 nM; with `CCOc1cccnc1O[C@@H]1CCCN(c2cncc(Nc3ncc(C(F)(F)F)c(-c4cccc(CC(C)(C)C(=O)O)c4)n3)n2)C1` [Example 165, (R)-3-(3-(2-((6-(3-((3-ethoxypyridin-2-yl)oxy)piperidin-1-yl)pyrazin-2-yl)amino)-5-(trifluoromethyl)pyrimidin-4-yl)phenyl)-2,2-dimethylpropanoic Acid], 64 nM; with `CCOc1cccnc1O[C@@H]1CCCN(c2cncc(Nc3nc(-c4cccc(CC(C)(C)C(=O)O)c4)cc(C(F)(F)F)n3)n2)C1` [Example 166, (R)-3-(3-(2-((6-(3-((3-ethoxypyridin-2-yl)oxy)piperidin-1-yl)pyrazin-2-yl)amino)-6-(trifluoromethyl)pyrimidin-4-yl)phenyl)-2,2-dimethylpropanoic Acid], 470 nM.
Consider `CCOc1ccccc1O[C@@H]1CCCN(c2cncc(Nc3nc(-c4cccc(CC(C)(C)C(=O)O)c4)cc(C(F)(F)F)n3)n2)C1` [Example 167, (R)-3-(3-(2-((6-(3-(2-ethoxyphenoxy)piperidin-1-yl)pyrazin-2-yl)amino)-6-(trifluoromethyl)pyrimidin-4-yl)phenyl)-2,2-dimethylpropanoic Acid], for which the IC50 came to 670 nM.
With `CCOc1ccccc1O[C@@H]1CCCN(c2cncc(Nc3ccnc(-c4cccc(C(C)(C)C(=O)O)c4)n3)n2)C1` [Example 168, (R)-2-(3-(4-((6-(3-(2-ethoxyphenoxy)piperidin-1-yl)pyrazin-2-yl)amino)pyrimidin-2-yl)phenyl)-2-methylpropanoic Acid] the figure was 420 nM.
As for `CCOc1ccccc1O[C@@H]1CCCN(c2cncc(Nc3ccnc(-c4ccc(C(C)(C)C(=O)O)cc4)n3)n2)C1` [Example 169, (R)-2-(4-(4-((6-(3-(2-ethoxyphenoxy)piperidin-1-yl)pyrazin-2-yl)amino)pyrimidin-2-yl)phenyl)-2-methylpropanoic Acid], the IC50 was found to be 260 nM.
With `CCOc1ccccc1O[C@@H]1CCCN(c2cncc(Nc3ccnc(-c4cccc(CC(C)(C)C(=O)O)c4)n3)n2)C1` [Example 170, (R)-3-(3-(4-((6-(3-(2-ethoxyphenoxy)piperidin-1-yl)pyrazin-2-yl)amino)pyrimidin-2-yl)phenyl)-2,2-dimethylpropanoic Acid] the figure was 250 nM; with `CCOc1cccnc1O[C@@H]1CCCN(c2cncc(Nc3ccnc(-c4cccc(CC(C)(C)C(=O)O)c4)n3)n2)C1` [Example 171, (R)-3-(3-(4-((6-(3-((3-ethoxypyridin-2-yl)oxy)piperidin-1-yl)pyrazin-2-yl)amino)pyrimidin-2-yl)phenyl)-2,2-dimethylpropanoic Acid], 240 nM.
Under `CCOc1ccccc1O[C@@H]1CCCN(c2cncc(Nc3ccnc(-c4ccc(CC(C)(C)C(=O)O)cc4)n3)n2)C1` [Example 172, (R)-3-(4-(4-((6-(3-(2-ethoxyphenoxy)piperidin-1-yl)pyrazin-2-yl)amino)pyrimidin-2-yl)phenyl)-2,2-dimethylpropanoic Acid] stands 250 nM; under `CCOc1cccnc1O[C@@H]1CCCN(c2cncc(Nc3ccnc(-c4ccc(CC(C)(C)C(=O)O)cc4)n3)n2)C1` [Example 173, (R)-3-(4-(4-((6-(3-((3-ethoxypyridin-2-yl)oxy)piperidin-1-yl)pyrazin-2-yl)amino)pyrimidin-2-yl)phenyl)-2,2-dimethylpropanoic Acid], 220 nM.
Under `CCOc1ccccc1O[C@@H]1CCCN(c2cncc(Nc3ccnc(-c4cccc(OC(C)(C)C(=O)O)c4)n3)n2)C1` [Example 174, (R)-2-(3-(4-((6-(3-(2-ethoxyphenoxy)piperidin-1-yl)pyrazin-2-yl)amino)pyrimidin-2-yl)phenoxy)-2-methylpropanoic Acid] stands 480 nM.
On to `CCOc1cccnc1O[C@@H]1CCCN(c2cncc(Nc3ccnc(-c4cccc(OC(C)(C)C(=O)O)c4)n3)n2)C1` [Example 175, (R)-2-(3-(4-((6-(3-((3-ethoxypyridin-2-yl)oxy)piperidin-1-yl)pyrazin-2-yl)amino)pyrimidin-2-yl)phenoxy)-2-methylpropanoic Acid], for which the IC50 amounted to 1100 nM.
Take `CCOc1ccccc1O[C@@H]1CCCN(c2cncc(Nc3nccc(-c4cccc(OC(C)(C)C(=O)O)c4)n3)n2)C1` [Example 176, (R)-2-(3-(2-((6-(3-(2-ethoxyphenoxy)piperidin-1-yl)pyrazin-2-yl)amino)pyrimidin-4-yl)phenoxy)-2-methylpropanoic Acid]: the IC50 is 590 nM.
For the compound `CCOc1cc(F)ccc1O[C@@H]1CCCN(c2cncc(Nc3cccc(-c4ccc(OC(C)(C)C(=O)O)cc4)n3)n2)C1` [Example 177, (R)-2-(4-(6-((6-(3-(2-ethoxy-4-fluorophenoxy)piperidin-1-yl)pyrazin-2-yl)amino)pyridin-2-yl)phenoxy)-2-methylpropanoic Acid], the IC50 was found to be 380 nM.
With `CCOc1ccccc1O[C@@H]1CCCN(c2cncc(Nc3ccnc(-c4ccc(OC(C)(C)C(=O)O)cc4)n3)n2)C1` [Example 178, (R)-2-(4-(4-((6-(3-(2-ethoxyphenoxy)piperidin-1-yl)pyrazin-2-yl)amino)pyrimidin-2-yl)phenoxy)-2-methylpropanoic Acid] the figure was 490 nM; with `CCOc1cccnc1O[C@@H]1CCCN(c2cncc(Nc3ccnc(-c4ccc(OC(C)(C)C(=O)O)cc4)n3)n2)C1` [Example 179, (R)-2-(4-(4-((6-(3-((3-ethoxypyridin-2-yl)oxy)piperidin-1-yl)pyrazin-2-yl)amino)pyrimidin-2-yl)phenoxy)-2-methylpropanoic Acid], 590 nM; with “(R)-2-(4-((6-(3-(2-ethoxyphenoxy)pyridin-1-yl)pyrazin-2-yl)amino)phenyl)-2-methylpropanoic Acid [Example 28]”, over 10000 nM.
